In patent US6656952B2, “Cis-substituted fluoromethylpyrrolidine derivative” (Daiichi Pharmaceutical Co., Ltd., priority 1997, dated 2003):
≈ marks a conversion by molar mass, not a printed value.

Key:
[1] = tested on: E. coli, NIHJ; assay: Antibacterial activity (MIC), standard method of the Japan Society of Chemotherapy; format: cell-based; conditions: Escherichia coli, read-out: Antibacterial activity (minimum inhibitory concentration)
Procedure: (§1) Examples of the present invention are given below by way of illustration and not by way of limitation. The antibacterial activity of each compound of interest was measured in accordance with the standard method specified by the Japan Society of Chemotherapy, with the results shown in Table 1 as MIC values (μg/ml).

[2] = tested on: Pr. mirabilis, IFO- 3849; assay: as above; format: cell-based; conditions: Proteus mirabilis, IFO3849, read-out: Antibacterial activity (minimum inhibitory concentration)
Procedure: as §1

[3] = tested on: Pr. vulgaris, 08601; assay: as above; format: cell-based; conditions: Proteus vulgaris, read-out: Antibacterial activity (minimum inhibitory concentration)
Procedure: as §1

[4] = tested on: Ps. aeruginosa, 32104; assay: as above; format: cell-based; conditions: Pseudomonas aeruginosa, read-out: Antibacterial activity (minimum inhibitory concentration)
Procedure: as §1

[5] = tested on: Ps. aeruginosa, 32121; assay: as above; format: cell-based; conditions: Pseudomonas aeruginosa, read-out: Antibacterial activity (minimum inhibitory concentration)
Procedure: as §1

[6] = tested on: S. aureus, 209P; assay: as above; format: cell-based; conditions: Staphylococcus aureus, read-out: Antibacterial activity (minimum inhibitory concentration)
Procedure: as §1

[7] = tested on: S. aureus, 870307; assay: as above; format: cell-based; conditions: Staphylococcus aureus, read-out: Antibacterial activity (minimum inhibitory concentration)
Procedure: as §1

[8] = tested on: S. epidermidis, 56500; assay: as above; format: cell-based; conditions: Staphylococcus epidermidis, read-out: Antibacterial activity (minimum inhibitory concentration)
Procedure: as §1

[9] = tested on: S. flexneli, 2A 5503; assay: as above; format: cell-based; conditions: read-out: Antibacterial activity (minimum inhibitory concentration)
Procedure: as §1

[10] = tested on: Ser. marcescens, 10100; assay: as above; format: cell-based; conditions: Serratia marcescens, read-out: Antibacterial activity (minimum inhibitory concentration)
Procedure: as §1

[11] = tested on: Str. faecalis, ATCC-19433; assay: as above; format: cell-based; conditions: Enterococcus faecalis, ATCC19433, read-out: Antibacterial activity (minimum inhibitory concentration)
Procedure: as §1

[12] = tested on: Str. pyogenes, G-36; assay: as above; format: cell-based; conditions: Streptococcus pyogenes, G36, read-out: Antibacterial activity (minimum inhibitory concentration)
Procedure: as §1

[13] = tested on: X. maltophilia, IID 1275; assay: as above; format: cell-based; conditions: Stenotrophomonas maltophilia, IID1275, read-out: Antibacterial activity (minimum inhibitory concentration)
Procedure: as §1

[14] = tested on: mouse peripheral blood; assay: Mouse peripheral blood micronucleus test; format: in vivo

| SMILES | MIC [1] [µg/mL] | MIC [2] [µg/mL] | MIC [3] [µg/mL] | MIC [4] [µg/mL] | MIC [5] [µg/mL] | MIC [6] [µg/mL] | MIC [7] [µg/mL] | MIC [8] [µg/mL] | MIC [9] [µg/mL] | MIC [10] [µg/mL] | MIC [11] [µg/mL] | MIC [12] [µg/mL] | MIC [13] [µg/mL] | micronucleus test (micronucleus inducing action) [14] |
| --- | --- | --- | --- | --- | --- | --- | --- | --- | --- | --- | --- | --- | --- | --- |
| COc1c(N2C[C@@H](CF)[C@@H](N)C2)c(F)cc2c(=O)c(C(=O)O)cn(C3CC3)c12 [Comp. Ex. 1, 7-[3-(R)-Amino-4-(R)-fluoromethyl-1-pyrrolidinyl]-1-cyclopropyl-6-fluoro-1,4-dihydro-8-methoxy-4-oxoquinoline-3-carboxylic acid, reference compound] | ≤ 0.003 | 0.1 (≈ 0.254 µM) | 0.013 (≈ 0.033 µM) | 0.2 (≈ 0.508 µM) | 0.1 (≈ 0.254 µM) | 0.025 (≈ 0.0636 µM) | 0.78 (≈ 1.98 µM) | 0.1 (≈ 0.254 µM) | 0.013 (≈ 0.033 µM) | 0.1 (≈ 0.254 µM) | 0.2 (≈ 0.508 µM) | 0.2 (≈ 0.508 µM) | 0.2 (≈ 0.508 µM) |  |
| COc1c(N2C[C@H](CF)[C@H](N)C2)c(F)cc2c(=O)c(C(=O)O)cn([C@@H]3C[C@@H]3F)c12 [Ex. 1, 7-[3-(S)-Amino-4-(S)-fluoromethyl-1-pyrrolidinyl]-6-fluoro-1-[2-(S)-fluoro-1-(R)-cyclopropyl]-1,4-dihydro-8-methoxy-4-oxoquinoline-3-carboxylic acid] | ≤ 0.003 | 0.025 (≈ 0.0608 µM) | 0.013 (≈ 0.0316 µM) | 0.2 (≈ 0.486 µM) | 0.05 (≈ 0.122 µM) | 0.013 (≈ 0.0316 µM) | 0.2 (≈ 0.486 µM) | 0.05 (≈ 0.122 µM) | 0.006 (≈ 0.0146 µM) | 0.05 (≈ 0.122 µM) | 0.1 (≈ 0.243 µM) | 0.1 (≈ 0.243 µM) | 0.2 (≈ 0.486 µM) |  |
| COc1c(N2C[C@H](CF)[C@H](N)C2)c(F)cc2c(=O)c(C(=O)O)cn(C3CC3)c12 [Ex. 2, 7-[3-(S)-Amino-4-(S)-fluoromethyl-1-pyrrolidinyl]-1-cyclopropyl-6-fluoro-1,4-dihydro-8-methoxy-4-oxoquinoline-3-carboxylic acid] | ≤ 0.003 | 0.05 (≈ 0.127 µM) | 0.013 (≈ 0.033 µM) | 0.2 (≈ 0.508 µM) | 0.1 (≈ 0.254 µM) | 0.013 (≈ 0.033 µM) | 0.39 (≈ 0.991 µM) | 0.05 (≈ 0.127 µM) | 0.006 (≈ 0.0153 µM) | 0.05 (≈ 0.127 µM) | 0.1 (≈ 0.254 µM) | 0.1 (≈ 0.254 µM) | 0.1 (≈ 0.254 µM) |  |
| COc1c(N2C[C@@H](N)[C@@H](C)C2)c(F)cc2c(=O)c(C(=O)O)cn(C3CC3)c12 [formula (VI)] |  |  |  |  |  |  |  |  |  |  |  |  |  | positive |
